# Measured values: patent US8435547B2, “Cream for stimulating mitochondrial activity in the skin” (priority 2006, dated 2013)
# Legend:
# [1] = cited from earlier work
# [2] = oral, human; cited from earlier work
# skin = test: Skin testing for the cause of the allergic reactions; assay type: in vivo, human; conditions: skin testing in the same volunteer
# From the text: When the use of the cream containing these ingredients was discontinued, the allergic lesions cleared completely without scarring.
compound,measurement,setting,value
tristeryl glycerol,solubility in alcohol,[1]; alcohol,very slightly soluble
same,solubility in water,[1]; water,insoluble
vitamin E,dose above which toxicity is evident,[2],above 1 gm/day
CCOC(=O)CC(O)C(=O)OCC (stereo not shown) [diethyl malate],ingredient responsible for the allergic reactions,skin,allergic reactions were due to the diethyl malate
